Experimental data from patent US20230141284A1, “CANCER THERAPEUTIC METHOD” (ONO PHARMACEUTICAL CO., LTD., priority 2020, published 2023).

Experiments:
[1] = system: human B-cell lymphoma cell lines (DOHH2 and OLI-Ly3); test: Anti-tumor effects in combination with Navitoclax, human B-cell lymphoma cell lines; assay type: cell-based; conditions: combination with Compound B 1000 nmol/L, DOHH2 and OLI-Ly3, 48 hours
Procedure: (§1) The anti-tumor effects of the STING agonistic compounds pertaining to the present invention and combination thereof with anti-neoplastic agents were evaluated on several human acute myeloid leukemia cell lines (KG-1α, THP-1 and CMK) and human B-cell lymphoma cell lines (DOHH2 and OLI-Ly3) below.
The cell lines above were suspended in medium (RPMI 1640 containing 10% FBS and 1% Penicillin-Streptomycin), respectively, and seeded into 96-well plates at a density of 2.5 to 5×10^4 cells/well. Immediately after seeding, mediums containing Compound B prepared, respectively, such that the final concentrations after addition to the mediums become 0, 10, 30, 100, 300, and 1000 nmol/L and anti-neoplastic agents prepared such that those become the following final concentrations, respectively, were added to each well and mixed well. […]
After culturing the cell lines for 48 hours at 37° C. and 5% CO2, 10 μL of Cell Counting Kit-8 (Dojindo) was added to each well, and after incubation for 60 minutes, the absorbance (450 nm) in each well was measured using a microplate reader. […] In the figures, the “signal intensity” on the vertical axis represents the absorbance value (450 nm), and the lower the value, the higher the anti-tumor effect.

[2] = system: IRF (Interferon Regulatory Factor) pathway; test: Effect on IRF (Interferon Regulatory Factor) pathway, Quanti-luc reporter cells; assay type: cell-based; conditions: activation of the IRF pathway, luminescence, about 24 hours incubation
Procedure: The cells mainly described at lines 12-20 of the right column on page 183 in Mol Immunol. 2017, Vol. 90, p. 182-189 were suspended in RPMI medium to prepare 2×10^6 cells/mL of cell suspension. 50 μL of the cell suspensions were dispensed into a 96-well plate, to which 50 μL of 6 to 20,000 nmol/L compound solutions were added. After adding the compound, the mixture thereof was incubated at 37° C. for about 24 hours. After incubation, 10 μL of cell suspensions were collected from each well, which were mixed with 50 μL of Quanti-luc (Invivogen). Then, the activation of the IRF pathway was measured by detecting luminescence using a microplate reader (Molecular Devices).

[3] = system: human acute myeloid leukemia cell lines; test: Anti-tumor effect on human acute myeloid leukemia cell lines (Cell Counting Kit-8); assay type: cell-based; conditions: administration alone, 100 to 1000 nmol/L, 48 hours
Procedure: The compound prepared in Example 3 (Compound B) was evaluated for anti-tumor activity against several human acute myeloid leukemia cell lines shown in the table of FIG. 13.
The cell lines above were suspended in medium (RPMI 1640 containing 10% FBS and 1% Penicillin-Streptomycin), respectively, and seeded into 96-well plates at a density of 5.0×10^4 cells/well. Immediately after seeding, mediums containing Compound B and Vehicle (0.1% at the final concentration of DMSO solution after addition to the medium), respectively, were added to each well and mixed well. The final concentration of Compound B after addition to the medium was prepared to be 100 to 1000 nmol/L, respectively. After culturing the cell lines for 48 hours at 37° C. and 5% CO2, 10 μL of Cell Counting Kit-8 (Dojindo) was added to each well, and after incubation for 60 minutes, the absorbance (450 nm) in each well was measured using a microplate reader. EC50 value was calculated from the absorbance value using Graphpad prism (Graphpad Software) to evaluate the effect of Compound B on cell proliferation. […] Relative cell count was calculated according to the following formula. Relative minimum cell count represents the minimum value of the above values.
Relative cell count (%)=(Absorbance (450 nm) in addition of Compound B−blank)/(Absorbance (450 nm) in addition of Vehicle (0.1% DMSO)−blank)×100 [Formula 1]

[4] = system: human acute myeloid leukemia cell lines (KG-1α, THP-1 and CMK); test: Anti-tumor effects in combination with anti-neoplastic agents, human acute myeloid leukemia cell lines; assay type: cell-based; conditions: combination with Compound B 10 to 1000 nmol/L, 48 hours, absorbance 450 nm
Procedure: as §1
The cell lines above were suspended in medium (RPMI 1640 containing 10% FBS and 1% Penicillin-Streptomycin), respectively, and seeded into 96-well plates at a density of 2.5 to 5×10^4 cells/well. Immediately after seeding, mediums containing Compound B prepared, respectively, such that the final concentrations after addition to the mediums become 0, 10, 30, 100, 300, and 1000 nmol/L and anti-neoplastic agents prepared such that those become the following final concentrations, respectively, were added to each well and mixed well. As a control, DMSO solution prepared such that the final concentration becomes 0.10% after addition to the medium was added thereto, separately. • Venetoclax (final concentrations: 0, 1, 10, 100, 1000, and 10000 nmol/L, respectively), • Cytarabine (final concentrations: 0, 1, 10, 100, 1000, and 10000 nmol/L, respectively), • Azacitidine (final concentrations: 0, 1, 10, 100, 1000, and 10000 nmol/L, respectively), and • Navitoclax (final concentrations: 0, 50, 500, and 5000 nmol/L, respectively) (the concentration of Compound B in combination with Navitoclax is 1000 nmol/L).
After culturing the cell lines for 48 hours at 37° C. and 5% CO2, 10 μL of Cell Counting Kit-8 (Dojindo) was added to each well, and after incubation for 60 minutes, the absorbance (450 nm) in each well was measured using a microplate reader. FIGS. 13, 14, and 15 show results thereof, respectively. In the figures, the “signal intensity” on the vertical axis represents the absorbance value (450 nm), and the lower the value, the higher the anti-tumor effect.

[5] = system: colon cancer cell line MC38; test: Compound A and anti-PD-1 antibody 4H2 in MC38 tumor-bearing mouse model (Example 21); assay type: in vivo, mice (C57/BL6)
Procedure: Compound A was administered intravenously once 8 days after transplantation, and the anti-PD-1 antibody 4H2 was administered intraperitoneally 4 times every 6 days since 8 days after transplantation. • Vehicle (n=9), • Compound A (0.1 mg/kg; n=9), • Anti-PD-1 antibody 4H2 (10 mg/kg (but 20 mg/kg only in the first dosage); n=9), and • Compound A (0.1 mg/kg) and anti-PD-1 antibody 4H2 (10 mg/kg (but 20 mg/kg only in the first dosage); n=9).
FIGS. 6 and 7 show results thereof.

[6] = Conversion of a prodrug to its active body (Compound B) in mouse plasma; assay type: in vitro ADME; conditions: 1 μmol/L, 37° C., 60 minutes
Procedure: (§2) The solutions of the example compounds in Table 2 below (50 μmol/L, 50% acetonitrile with 5% DMSO) were added to plasma (245 μL), respectively, such that the final concentrations thereof become 1 μmol/L. After keeping them the temperature at 37° C. for 60 minutes, 40 μL of the reaction solutions were taken therefrom, and added to 200 μL of acetonitrile/ethanol (7:3) containing Candesartan (internal standard).
(§3) The concentration of the compound prepared in Example 3 (Compound B) in the plasma resulting from the above reaction was analyzed by LC-MS/MS according to the following method.
(§4) The whole amount was transferred to a filter plate for protein removal and filtered by suction, and the filtrate thereof was diluted 2-fold with water. [LC column] Shim-pack XR-ODSII 2.0 mm ID×75 mm (Shimadzu Corporation) [LC condition] Column temperature: 40° C. Mobile phase: A: 0.2% formic acid in 5 mM ammonium acetate solution; and
(§5) [MS conditions] Electrospray, positive mode, multiple reaction monitoring; MS monitor ion: Compound B: m/z353.0→m/z311.2, DP: 80, CE: 35; and Candesartan (internal standard): m/z309.1→m/z163.0, DP: 71, CE: 21.
(§6) A regression formula was calculated from the peak area ratio (peak area of Compound B/peak area of Candesartan) of the real sample and the standard sample for the calibration curve in the same matrix, and the peak area ratio of the real sample was substituted into the regression formula to calculate the quantitative value. 60 minutes later, the concentration of Compound B in the sample was compared, and the conversion rate (%) thereof was calculated using the following formula:
(§7) Conversion rate (%)=Concentration of Compound B in the sample after 60 minutes (μmol/L)×100

[7] = system: melanoma cell line B16F10; test: Combination experiments in subcutaneously melanoma cell line B16F10 tumor-bearing mice model (Example 23); assay type: in vivo, mice (C57/BL6); conditions: until Day 30
Procedure: • Vehicle and control antibody (rIgG1) (n=8 or 6), • Compound A (0.3 mg/kg) and control antibody (rIgG1) (n=6), • Anti-PD-1 antibody 4H2 (10 mg/kg (but 20 mg/kg only in the first dose only); n=6), and • Compound A (0.3 mg/kg) and anti-PD-1 antibody 4H2 (10 mg/kg (but 20 mg/kg only for the first dosage)) (n=6).
In the Combination Experiment 1, Compound A was administered once 10 days after transplantation while the anti-PD-1 antibody 4H2 and control antibody were administered 4 times every 6 days since 10 days after transplantation, respectively.
• Vehicle and control antibody (rIgG1) (n=8 or 6), • Compound A (0.3 mg/kg) and control antibody (rIgG1) (n=6), • Anti-VEGFR2 antibody DC101 (BioXCell) (10 mg/kg; n=6), and • Compound A (0.3 mg/kg) and anti-VEGFR2 antibody DC101 (10 mg/kg) (n=6).
In the Combination Experiment 2, Compound A was administered 4 times every 7 days since 10 days after transplantation while anti-VEGFR2 antibody DC101 and control antibody were administered 7 times every 3 or 4 days once 10 days after transplantation, respectively.
Vehicle and Compound A were administered intravenously while control antibody, anti-PD-1 antibody, and anti-VEGFR2 antibody were administered intraperitoneally, respectively.
FIGS. 9 and 10 show results thereof.

[8] = system: human acute myeloid leukemia cell line MV4-11; test: Anti-tumor effect in subcutaneously tumor model bearing human acute myeloid leukemia cell line MV4-11; assay type: in vivo; conditions: dosages of 1.0 mg/kg and 3.0 mg/kg; immunodeficient mice; until Day 28
Procedure: They were grouped based on tumor volume 6 days after transplantation, and Compound A (0.3, 1.0, and 3.0 mg/kg, respectively; n=8) and Vehicle (n=8) were administered to the subcutaneously tumor-bearing mice, respectively.

[9] = Conversion of a prodrug to its active body (Compound B) in human plasma; assay type: in vitro ADME; conditions: 1 μmol/L, 37° C., 60 minutes
Procedure: as §2, §3, §4, §5, §6, §7

| EC50 [2] [nM] | Plasma conversion rate Mouse [6] | Plasma conversion rate Human [9] | SMILES | anti-tumor activity of Navitoclax [1] | anti-tumor effect (cell proliferation) [3] | anti-tumor activity of Azacitidine [4] | anti-tumor activity of Cytarabine [4] | anti-tumor activity of Venetoclax [4] | tumor-reducing effect ([5]; Compound A 0.1 mg/kg combined with anti-PD-1 antibody 4H2, 28 days after transplantation) | anti-tumor effect observed with anti-PD-1 antibody alone ([5]; Compound A 0.1 mg/kg i.v. once combined with anti-PD-1 antibody 4H2 10 mg/kg (20 mg/kg first dosage)) | number with complete tumor remission ([5]; combination of Compound A (0.1 mg/kg) and the anti-PD-1 antibody) | anti-tumor effect of anti-VEGFR2 antibody ([7]; Compound A 0.3 mg/kg 4 times every 7 days combined with anti-VEGFR2 antibody DC101 10 mg/kg) | anti-tumor effect of anti-PD-1 antibody ([7]; Compound A 0.3 mg/kg once combined with anti-PD-1 antibody 4H2 10 mg/kg (20 mg/kg first dosage)) | tumor growth (tumor volume) [8] |
| --- | --- | --- | --- | --- | --- | --- | --- | --- | --- | --- | --- | --- | --- | --- |
| 40 |  |  | CC(=O)c1cc(-c2ncc(-c3cn[nH]c3)c3onc(N)c23)c(F)cc1N [Example 3, 1-(2-amino-5-(3-amino-7-(1H-pyrazol-4-yl)isoxazolo[4,5-c]pyridin-4-yl)-4-fluorophenyl)ethan-1-one] | enhanced | significant anti-tumor effect | enhanced | enhanced | enhanced |  |  |  |  |  |  |
|  | + + + | + + + | CC(=O)c1cc(-c2ncc(-c3cnn(COP(=O)(O)O)c3)c3onc(N)c23)c(F)cc1N [Example 10(1), (4-(4-(5-acetyl-4-amino-2-fluorophenyl)-3-aminoisoxazolo[4,5-c]pyridin-7-yl)-1H-pyrazol-1-yl)methyl dihydrogen phosphate] |  |  |  |  |  | showed the tumor-reducing effect | enhanced | 5 out of 9 | enhanced | enhanced | suppressed tumor growth |
